Test [1] concerns the target T1, full length human farnesoid X receptor (Homo sapiens, UniProt Q96RI1).
T1 construct: CMX-farnesoid X receptor (full length human farnesoid X receptor); expressed in transfected cells; host or cells: CV-1 African Green Monkey Kidney cells
T1 sequence (Q96RI1 1-472 isoform Q96RI1-2): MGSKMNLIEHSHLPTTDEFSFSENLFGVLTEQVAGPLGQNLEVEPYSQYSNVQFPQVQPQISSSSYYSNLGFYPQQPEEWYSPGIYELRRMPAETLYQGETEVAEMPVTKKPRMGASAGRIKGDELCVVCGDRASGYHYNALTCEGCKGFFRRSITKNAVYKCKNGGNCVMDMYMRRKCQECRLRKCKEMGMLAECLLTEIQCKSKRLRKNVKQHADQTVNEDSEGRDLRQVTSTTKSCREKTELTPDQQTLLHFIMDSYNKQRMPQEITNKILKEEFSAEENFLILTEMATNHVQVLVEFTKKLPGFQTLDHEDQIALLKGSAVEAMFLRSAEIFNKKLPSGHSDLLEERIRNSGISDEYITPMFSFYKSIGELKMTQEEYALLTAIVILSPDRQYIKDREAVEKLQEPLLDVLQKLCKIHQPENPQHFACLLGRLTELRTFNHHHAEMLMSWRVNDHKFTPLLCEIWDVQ
T1 sequence (P19793 1-462 partner): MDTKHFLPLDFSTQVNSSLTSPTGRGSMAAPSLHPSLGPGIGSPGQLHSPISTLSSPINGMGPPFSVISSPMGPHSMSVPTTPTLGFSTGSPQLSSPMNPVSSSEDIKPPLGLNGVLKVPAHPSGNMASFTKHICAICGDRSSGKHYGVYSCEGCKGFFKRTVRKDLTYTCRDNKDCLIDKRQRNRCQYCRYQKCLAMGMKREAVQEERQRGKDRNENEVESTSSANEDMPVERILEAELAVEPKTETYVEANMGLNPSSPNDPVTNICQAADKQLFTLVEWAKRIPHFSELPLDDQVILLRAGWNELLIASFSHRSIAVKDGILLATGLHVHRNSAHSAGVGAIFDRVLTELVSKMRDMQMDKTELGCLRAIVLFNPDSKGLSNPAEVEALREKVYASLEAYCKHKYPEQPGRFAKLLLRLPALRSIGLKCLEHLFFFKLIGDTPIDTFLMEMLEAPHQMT
In words: farnesoid X receptor/ECREx7 co-transfection assay (luciferase reporter, CV-1 cells). In kind it is cell-based. Particulars: read-out: agonist activity EC50. As to the method: The basic co-transfection protocol for measuring the farnesoid X receptor activity is as follows. CV-1 African Green Monkey Kidney cells were plated 24 hours before transfection to achieve approximately 70-80 percent confluency. Cells were transfected with the following expression vectors, CMX-farnesoid X receptor (full length human farnesoid X receptor), CMX-RXRα (full length human RXR), Luc12 (ECREx7-Tk-Luciferase) luciferase reporter gene construct. (See WO 00/76523, Venkateswaran et al., (2000) J. Biol. Chem. 275 14700-14707). A CMX-β-Galactosidase expression vector was used as a transfection control. The transfection reagent used was DOTAP (Boehringer Mannheim). Cells were incubated with the DOTAP/DNA mixture for 5 hours after which the cells were harvested and plated onto either 96 well or 384 well plates containing the appropriate concentration of test compound. The assay was allowed to continue for an additional 18-20 hours, after which the cells were lysed, with lysis buffer (1% triton X 100, 10% glycerol, 5 mM Dithiothreitol, 1 mM EGTA, 25 mM Tricine, pH 7.8) and the luciferase activity measured in the presence of Luciferase assay buffer (0.73 mM ATP, 22.3 mM Tricine, 0.11 mM EGTA, 0.55 mM Luciferin, 0.15 mM Coenzyme A, 0.5 mM HEPES, 10 mM Magnesium sulphate) on a standard luminomter plate reader (PE Biosystems, NorthStar Reader), using recommended operating instructions and conditions.
Both the farnesoid X receptor/ECREx7 co-transfection assay (Example 76) and the TR-FRET assay (Example 75) can be used to establish the EC50/IC50 values for potency and percent activity or inhibition for efficacy. Efficacy defines the activity of a compound relative to a high control (chenodeoxycholic acid, CDCA) or a low control (DMSO/vehicle). The dose response curves are generated from an 8 point curve with concentrations differing by ½ LOG units. Each point represents the average of 4 wells of data from a 384 well plate. The curve for the data is generated by using the equation: Y=Bottom+(Top−Bottom)/(1+10^((LogEC50−X)*HillSlope))
The EC50/IC50 is therefore defined as the concentration at which an agonist or antagonist elicits a response that is half way between the Top (maximum) and Bottom (baseline) values. The EC50/IC50 values represented are the averages of at least 3 independent experiments. The determination of the relative efficacy or % control for an agonist is by comparison to the maximum response achieved by chenodeoxycholic acid that is measured individually in each dose response experiment.
For the antagonist assay, CDCA is added to each well of a 384 well plate to elicit a response. The % inhibition for each antagonist is therefore a measurement of the inhibition of the activity of CDCA.
For orientation: A reporter such as luciferase makes a cellular process visible.

Test [2] has as its system low density lipoprotein receptor deficient mice (LDLR^−/−). The test is described as follows: In vivo model of hyperlipidemia and atherosclerosis: LDLR−/− mice consuming a western diet. Also noted: species or system mouse.
Test [3] concerns db/db mouse. The test is described as follows: In vivo model of diabetes and dyslipidemia: db/db mouse. The note with it: once daily 10 mg/kg for one week.
Test [4] relates to normal mice. In words: In vivo plasma lipid profile, normal mice, one week of daily oral dosing. Also noted: species or system mouse. As to the method:
To compare the effects of compounds on plasma lipid profiles, including but not limited to cholesterol and triglycerides, animals were dosed with compound for one week and plasma lipid levels monitored throughout the study. Male C57BL/6 mice (n=8) were dosed daily by oral gavage with vehicle or compound. Plasma samples were taken on day −1 (in order to group animals), day 1, 3, and 7. Samples were collected three hours after the daily dose. On day 7 of the study, following plasma collection, animals were euthanized and tissues, such as liver and intestinal mucosa were collected and snap frozen for further analysis. Plasma was analyzed for lipid parameters, such as total cholesterol, HDL cholesterol and triglyceride levels. RNA was extracted from frozen tissues for later analysis by quantitative real time PCR for regulation of key target genes. To identify specificity of target gene regulation by the farnesoid X receptor, knockout mice and C57BL/6 wild-type controls maybe used in this same protocol.

Test [5] addresses T2, farnesoid X receptor (Homo sapiens, UniProt Q96RI1).
T2 construct: fused on or other part: GST fused in frame to the N-terminus of the LBD (TR-FRET assay only); Nothing is fused on in the co-transfection assay
T2 sequence (Q96RI1 244-471 isoform Q96RI1-2 limits assumed): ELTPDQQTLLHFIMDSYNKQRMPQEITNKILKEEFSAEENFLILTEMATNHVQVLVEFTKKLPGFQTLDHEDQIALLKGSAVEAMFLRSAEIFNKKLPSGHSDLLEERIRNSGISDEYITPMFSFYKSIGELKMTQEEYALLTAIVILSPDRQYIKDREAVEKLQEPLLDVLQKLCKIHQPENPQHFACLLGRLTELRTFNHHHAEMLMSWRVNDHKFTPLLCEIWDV
In words: one or more of the in vitro assays described herein (TR-FRET assay, Example 75; co-transfection assay, Example 76).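 Also: TR-FRET assay or luciferase reporter in CV-1 monkey kidney cells co-transfected with human FXR and RXRα, dose-response over 8 half-log concentrations, CDCA added in antagonist mode.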 Particulars: relative to maximum response of chenodeoxycholic acid (CDCA); read-out: efficacy. For orientation: Time-resolved FRET reads energy transfer from a long-lived donor to a nearby acceptor.
Experimental: (Wallac/PE Life Sciences, Cat# AD0059A) in FRET assay buffer (20 mM KH2PO4/K2HPO4 (pH 7.3), 150 mM NaCl, 2 mM CHAPS, 2 mM EDTA, 1 mM DTT) in the presence of the test compound(s) for 2-4 hours at room temperature in a 384 well assay plate. Data was collected using an LJL Analyst using the standard operating instructions and conditions with readings at emission wavelengths of 615 nm and 665 nm after a delay of 65 ps and an excitation wavelength of 330 nm.
The basic co-transfection protocol for measuring the farnesoid X receptor activity is as follows. CV-1 African Green Monkey Kidney cells were plated 24 hours before transfection to achieve approximately 70-80 percent confluency. Cells were transfected with the following expression vectors, CMX-farnesoid X receptor (full length human farnesoid X receptor), CMX-RXRα (full length human RXR), Luc12 (ECREx7-Tk-Luciferase) luciferase reporter gene construct. […] A CMX-β-Galactosidase expression vector was used as a transfection control. The transfection reagent used was DOTAP (Boehringer Mannheim). Cells were incubated with the DOTAP/DNA mixture for 5 hours after which the cells were harvested and plated onto either 96 well or 384 well plates containing the appropriate concentration of test compound. The assay was allowed to continue for an additional 18-20 hours, after which the cells were lysed, with lysis buffer (1% triton X 100, 10% glycerol, 5 mM Dithiothreitol, 1 mM EGTA, 25 mM Tricine, pH 7.8) and the luciferase activity measured in the presence of Luciferase assay buffer (0.73 mM ATP, 22.3 mM Tricine, 0.11 mM EGTA, 0.55 mM Luciferin, 0.15 mM Coenzyme A, 0.5 mM HEPES, 10 mM Magnesium sulphate) on a standard luminomter plate reader (PE Biosystems, NorthStar Reader), using recommended operating instructions and conditions.

Where [6] appears, read: one week of daily dosing at 10 mg/kg.
[7] abbreviates: 10 mg/kg daily dosing for one week.

Molecules are shown by their SMILES. Bounds are passed on as bounds.

For `CCCOC(=O)C1=CN(C(=O)c2ccc(F)cc2)C(C)Cc2c1[nH]c1cc(F)ccc21` (centres unmarked) [n-propyl 3(4-fluorobenzoyl)-2-methyl-8-fluoro-1,2,3,6-tetrahydroazepino[4,5-b]indole-5-carboxylate], the EC50 – broadly, the concentration that produces a half-maximal response – in test [1] was less than 1 µM.
As to `CCOC(=O)C1=CN(C(=O)c2ccc(F)c(F)c2)CC(C)(C)c2c1[nH]c1ccccc21` [ethyl 3-(3,4-difluorobenzoyl)-1,1-dimethyl-1,2,3,6-tetrahydroazepino[4,5-b]indole-5-carboxylate], in test [2] (setting [6]), the “decrease of plasma total cholesterol levels” value was roughly 50%, the non-HDL cholesterol result was “decrease” and the “reduction of plasma triglycerides” value is “greater than 50%”. For the same compound, in test [2] (treatment with compound), the “plasma free fatty acid concentration” value is “attenuated” and the plasma glucose concentration result is recorded as “attenuated”. Moreover, in test [3], the “plasma free fatty acid levels” value is given as “declines”, the “reduction in non-HDL cholesterol” value is “approximately 50%” and the “reduction in plasma triglycerides” value is reported as “approximately 50%”. In test [4] (setting [7]), the “plasma HDL-cholesterol levels” value was “without affecting”, the “plasma non-HDL cholesterol” value is given as “significant lowering” and the plasma total cholesterol entry is “decreased”. Also, in test [4] (once daily dosing at 0.1-10 mg/kg for one week), the plasma triglyceride levels entry is on record as “significantly reduced”. Also, the Emax in test [5] was greater than 100%.
Regarding `CCOC(=O)C1=CN(C(=O)c2cccc(F)c2)CCc2c1[nH]c1ccccc21` [3-(3-fluorobenzoyl)-1,2,3,6-tetrahydroazepino[4,5-b]indole-5-carboxylic acid ethyl ester], the EC50 in test [1] is less than 1 µM.
For `CCCOC(=O)C1=CN(C(=O)c2ccc(F)cc2)C(C)Cc2c1[nH]c1ccccc21` (centres unmarked) [n-propyl 3(4-fluorobenzoyl)-2-methyl-1,2,3,6-tetrahydroazepino[4,5-b]indole-5-carboxylate], the EC50 in test [1] was less than 1 µM.
Same read-out and setting: as for `O=C(NC1CCC1)C1=CN(C(=O)c2ccc(F)cc2)CCc2c1[nH]c1ccccc21` [3-(4-fluorobenzoyl)-1,2,3,6-tetrahydroazepino[4,5-b]indole-5-carboxylic acid cyclobutylamide], the figure is less than 1 µM.
